Data: patent publication US20230113037A1 (Bayer Aktiengesellschaft, priority 2019, published 2023)
pIC50: −log10 of the molar value.

Legend:
AHR [1] = biological target: T1, AHR (Homo sapiens, UniProt P35869); assay: In vitro assay 1: antagonism in human cell line (AHR transactivation, firefly luciferase reporter, kynurenic acid prestimulated); type: cell-based; conditions: AHR Antagonism Human IC50 [M], firefly luciferase reporter
T1 construct: U87 MG glioblastoma cells (ATCC #HTB-14) endogenously expressing AHR; endogenous in cells; host or cells: U87 MG glioblastoma cells (ATCC #HTB-14)
T1 sequence (P35869 11-848): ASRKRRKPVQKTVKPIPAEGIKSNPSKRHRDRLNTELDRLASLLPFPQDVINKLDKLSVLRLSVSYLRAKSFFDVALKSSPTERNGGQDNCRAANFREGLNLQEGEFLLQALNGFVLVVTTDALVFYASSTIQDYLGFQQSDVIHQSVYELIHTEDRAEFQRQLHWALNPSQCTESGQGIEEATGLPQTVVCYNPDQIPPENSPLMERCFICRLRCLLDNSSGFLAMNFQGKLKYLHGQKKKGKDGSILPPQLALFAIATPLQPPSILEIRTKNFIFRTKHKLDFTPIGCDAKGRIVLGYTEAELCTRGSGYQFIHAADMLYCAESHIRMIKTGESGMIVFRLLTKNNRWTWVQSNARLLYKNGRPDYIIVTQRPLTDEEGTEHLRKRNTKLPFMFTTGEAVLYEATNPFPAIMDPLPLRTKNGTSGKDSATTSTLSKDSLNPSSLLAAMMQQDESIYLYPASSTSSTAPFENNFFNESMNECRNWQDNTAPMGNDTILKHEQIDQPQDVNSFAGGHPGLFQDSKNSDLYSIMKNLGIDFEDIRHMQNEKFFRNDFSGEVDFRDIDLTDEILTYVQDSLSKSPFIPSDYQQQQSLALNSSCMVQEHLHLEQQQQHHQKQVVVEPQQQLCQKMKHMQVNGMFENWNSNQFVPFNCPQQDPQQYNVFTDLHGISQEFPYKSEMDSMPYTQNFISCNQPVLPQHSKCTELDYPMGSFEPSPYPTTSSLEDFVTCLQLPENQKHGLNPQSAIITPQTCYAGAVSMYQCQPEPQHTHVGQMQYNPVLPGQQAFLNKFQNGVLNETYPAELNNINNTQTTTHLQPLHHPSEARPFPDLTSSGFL
How it was run: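 U87 MG glioblastoma cells with endogenous AHR, stably carrying a DRE-driven firefly luciferase reporter and constitutive Renilla reporter, prestimulated with kynurenic acid before compound addition. Firefly and Renilla read by dual luciferase; Renilla flags toxicity; normalized to controls (150 μM kynurenic acid + 5 μM staurosporine as full inhibition); repeat values averaged or median.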

AHR [2] = biological target: T2, AHR (Mus musculus, UniProt P30561); assay: In vitro assay 3: antagonism in mouse cell line (AHR transactivation, firefly luciferase reporter, kynurenic acid prestimulated); type: cell-based; conditions: Hepa 1c1c7 cells, 200 μM kynurenic acid, 20 hours, firefly luciferase reporter, read-out: AHR Antagonism Mouse IC50
T2 sequence (P30561 1-848 P471L/N533S/M589L): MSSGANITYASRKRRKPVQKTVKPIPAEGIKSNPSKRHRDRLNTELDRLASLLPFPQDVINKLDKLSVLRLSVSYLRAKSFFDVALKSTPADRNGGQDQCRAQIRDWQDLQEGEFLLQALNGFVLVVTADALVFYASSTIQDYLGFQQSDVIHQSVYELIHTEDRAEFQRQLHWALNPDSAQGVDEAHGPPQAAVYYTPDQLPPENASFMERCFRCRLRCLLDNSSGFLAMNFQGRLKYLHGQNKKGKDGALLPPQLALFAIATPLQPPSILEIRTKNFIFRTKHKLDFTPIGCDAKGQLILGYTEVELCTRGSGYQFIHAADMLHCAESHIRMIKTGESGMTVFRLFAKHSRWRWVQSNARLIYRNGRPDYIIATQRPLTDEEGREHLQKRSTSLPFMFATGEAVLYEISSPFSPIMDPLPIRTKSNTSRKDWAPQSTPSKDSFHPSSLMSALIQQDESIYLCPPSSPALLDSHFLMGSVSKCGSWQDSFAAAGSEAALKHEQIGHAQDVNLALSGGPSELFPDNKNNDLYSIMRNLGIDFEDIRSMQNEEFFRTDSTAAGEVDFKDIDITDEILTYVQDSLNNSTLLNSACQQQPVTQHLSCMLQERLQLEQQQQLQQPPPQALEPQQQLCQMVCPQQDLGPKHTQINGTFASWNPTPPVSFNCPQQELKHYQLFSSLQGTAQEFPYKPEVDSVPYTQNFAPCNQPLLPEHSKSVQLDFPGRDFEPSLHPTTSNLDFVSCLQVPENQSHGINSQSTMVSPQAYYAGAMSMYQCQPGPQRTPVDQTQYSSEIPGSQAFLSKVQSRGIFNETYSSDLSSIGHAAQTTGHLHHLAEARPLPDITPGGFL
How it was run: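 Mouse cells stably carrying a DRE-driven AHR-inducible firefly luciferase reporter were prestimulated with the endogenous agonist kynurenic acid before compound addition. Luciferase read by SteadyGlo; cells without kynurenic acid served as full-inhibition control, with normalization to positive and negative controls. Repeat tests reported as mean or median.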

Row | Structure (SMILES) | IC50 (AHR [1]) | pIC50 (AHR [2])
1 | CCn1cc(-c2nc3c4cccc(Br)c4nc(N[C@@H]4CNCCNC4=O)n3n2)cn1 [Example 980, (6R)-6-{[7-bromo-2-(1-ethyl-1H-pyrazol-4-yl)[1,2,4]triazolo[1,5-c]quinazolin-5-yl]amino}-1,4-diazepan-5-one] | 5.22e-09 M | 8.20
2 | CC(C)n1cc(-c2nc3c4cccc(Br)c4nc(N[C@@H]4CNCCNC4=O)n3n2)cn1 [Example 981, (6R)-6-({7-bromo-2-[1-(propan-2-yl)-1H-pyrazol-4-yl][1,2,4]triazolo[1,5-c]quinazolin-5-yl}amino)-1,4-diazepan-5-one] | 2.69e-09 M | 8.23
3 | O=C1NCCNC[C@H]1Nc1nc2c(Br)cccc2c2nc(-c3cnn(CC4CCC4)c3)nn12 [Example 982, (6R)-6-({7-bromo-2-[1-(cyclobutylmethyl)-1H-pyrazol-4-yl][1,2,4]triazolo[1,5-c]quinazolin-5-yl}amino)-1,4-diazepan-5-one] | 9.42e-09 M | 7.69
4 | Cn1cc(-c2nc3c4cccc(Br)c4nc(N[C@H]4CNCCNC4=O)n3n2)cn1 [Example 983, (6S)-6-{[7-bromo-2-(1-methyl-1H-pyrazol-4-yl)[1,2,4]triazolo[1,5-c]quinazolin-5-yl]amino}-1,4-diazepan-5-one] | 8.18e-08 M | 6.72
5 | CC(C)n1cc(-c2nc3c4cccc(Br)c4nc(N[C@H]4CNCCNC4=O)n3n2)cn1 [Example 984, (6S)-6-({7-bromo-2-[1-(propan-2-yl)-1H-pyrazol-4-yl][1,2,4]triazolo[1,5-c]quinazolin-5-yl}amino)-1,4-diazepan-5-one] | 3.84e-08 M | 7.39
6 | C[C@@H](Nc1nc2c(Br)cccc2c2nc(-c3cnn(C)c3)nn12)C(=O)N1CCNCC1 [Example 985, (2R)-2-{[7-bromo-2-(1-methyl-1H-pyrazol-4-yl)[1,2,4]triazolo[1,5-c]quinazolin-5-yl]amino}-1-(piperazin-1-yl)propan-1-one hydrogen chloride (1/1)] | 6.49e-08 M | 7.02
7 | CNCCNC(=O)[C@@H](C)Nc1nc2c(Br)cccc2c2nc(-c3ccc(OC)cc3)nn12 [Example 987, N^2-[7-bromo-2-(4-methoxyphenyl)[1,2,4]triazolo[1,5-c]quinazolin-5-yl]-N-[2-(methylamino)ethyl]-D-alaninamide-hydrogen chloride (1/1)] | 8.61e-09 M | 7.88
8 | COc1ccc(-c2nc3c4ccccc4nc(N[C@H](C)C(=O)N4CCNCC4)n3n2)cc1 [Example 988, (2R)-2-{[2-(4-methoxyphenyl)[1,2,4]triazolo[1,5-c]quinazolin-5-yl]amino}-1-(piperazin-1-yl)propan-1-one-hydrogen chloride (1/1)] | 1.49e-08 M | 7.86
9 | CNCCNC(=O)[C@@H](C)Nc1nc2c(Br)cccc2c2nc(-c3cnn(C)c3)nn12 [Example 989, N^2-[7-bromo-2-(1-methyl-1H-pyrazol-4-yl)[1,2,4]triazolo[1,5-c]quinazolin-5-yl]-N-[2-(methylamino)ethyl]-D-alaninamide] | 5.18e-07 M | 6.40
10 | CNCCNC(=O)[C@@H](C)Nc1nc2ccccc2c2nc(-c3ccc(OC)cc3)nn12 [Example 990, N^2-[2-(4-methoxyphenyl)[1,2,4]triazolo[1,5-c]quinazolin-5-yl]-N-[2-(methylamino)ethyl]-D-alaninamide-hydroxy chloride (1/1)] | 4.29e-08 M | 7.13
11 | CNCCNC(=O)[C@@H](C)Nc1nc2c(Br)cccc2c2nc(-c3cnn(C)c3)nn12 [Example 991, N^2-[7-bromo-2-(1-methyl-1H-pyrazol-4-yl)[1,2,4]triazolo[1,5-c]quinazolin-5-yl]-N-[2-(methylamino)ethyl]-D-alaninamide-hydrogen chloride (1/1)] | 3.13e-08 M | 7.12
12 | COc1ccc(-c2nc3c4cccc(Br)c4nc(N[C@H](C)C(=O)NCCN4CCNCC4)n3n2)cc1 [Example 992, N^2-[7-bromo-2-(4-methoxyphenyl)[1,2,4]triazolo[1,5-c]quinazolin-5-yl]-N-[2-(piperazin-1-yl)ethyl]-D-alaninamide-hydrogen chloride (1/2)] | 3.94e-09 M | 8.11
13 | COc1ccc(-c2nc3c4cccc(OCCC(C)(C)OC)c4nc(N[C@@H]4CCCCNC4=O)n3n2)cc1 [Example 996, (3R)-3-{[7-(3-methoxy-3-methylbutoxy)-2-(4-methoxyphenyl)[1,2,4]triazolo[1,5-c]quinazolin-5-yl]amino}azepan-2-one] | 2.8e-07 M | 7.11
14 | COc1ccc(-c2nc3c4cccc(OCCC(C)(C)O)c4nc(N[C@@H]4CCCCNC4=O)n3n2)cc1 [Example 1000, (3R)-3-{[7-(3-hydroxy-3-methylbutoxy)-2-(4-methoxyphenyl)[1,2,4]triazolo[1,5-c]quinazolin-5-yl]amino}azepan-2-one] | 9.07e-09 M | 8.08

The remaining lines, values ahead:

Row | IC50 (AHR [1]) | pIC50 (AHR [2]) | Structure (SMILES)
15 | 5.88e-07 M | 5.34 | C[C@@H](Nc1nc2c(Br)cccc2c2nc(-c3cnn(C)c3)nn12)C(=O)NCCN1CCNCC1 [Example 993, N^2-[7-bromo-2-(1-methyl-1H-pyrazol-4-yl)[1,2,4]triazolo[1,5-c]quinazolin-5-yl]-N-[2-(piperazin-1-yl)ethyl]-D-alaninamide-hydrogen chloride (1/2)]
16 | 2.32e-08 M | 7.59 | CN1CCNC(=O)[C@H](Nc2nc3c(Br)cccc3c3nc(-c4cnn(C)c4)nn23)C1 [Example 994, (6R)-6-{[7-bromo-2-(1-methyl-1H-pyrazol-4-yl)[1,2,4]triazolo[1,5-c]quinazolin-5-yl]amino}-1-methyl-1,4-diazepan-5-one]
17 | 6.97e-10 M | 8.68 | COc1ccc(-c2nc3c4cccc(Br)c4nc(N[C@@H]4CN(C)CCNC4=O)n3n2)cc1 [Example 995, (6R)-6-{[7-bromo-2-(4-methoxyphenyl)[1,2,4]triazolo[1,5-c]quinazolin-5-yl]amino}-1-methyl-1,4-diazepan-5-one]
18 | 8.11e-08 M | 6.86 | COc1ccc(-c2nc3c4cccc(OCC(C)(C)O)c4nc(N[C@@H]4CCCCNC4=O)n3n2)cc1 [Example 997, (3R)-3-{[7-(2-hydroxy-2-methylpropoxy)-2-(4-methoxyphenyl)[1,2,4]triazolo[1,5-c]quinazolin-5-yl]amino}azepan-2-one]
19 | 4.16e-07 M | 6.55 | COc1ccc(-c2nc3c4cccc(OC5CCC5)c4nc(N[C@@H]4CCCCNC4=O)n3n2)cc1 [Example 998, (3R)-3-{[7-(cyclobutyloxy)-2-(4-methoxyphenyl)[1,2,4]triazolo[1,5-c]quinazolin-5-yl]amino}azepan-2-one]
20 | 6.91e-09 M | 8.37 | COc1ccc(-c2nc3c4cccc(OC5CC5)c4nc(N[C@@H]4CCCCNC4=O)n3n2)cc1 [Example 999, (3R)-3-{[7-(cyclopropyloxy)-2-(4-methoxyphenyl)[1,2,4]triazolo[1,5-c]quinazolin-5-yl]amino}azepan-2-one]
